Test results from patent publication US9649266B2 (priority 2014, dated 2017).
Read-outs that look alike come from different tables or passages of the source.

Experiments:
[1] = system: oily skin; conditions: 1% solution on face twice a day, after a month
[2] = system: enlarged skin pores; conditions: 0.1% gel on face twice a day, after a month
[3] = system: sebum production; conditions: for reduction in sebum production (as assessed by the Sebotape): 2% memantine lotion twice daily on back skin, vs pre-treatment or control region; for health of the skin in treatment region: 2% memantine lotion twice daily
[4] = system: acne; conditions: 0.5% cream on face twice a day, after three months

Structure (SMILES): OC(CCN1CCCCC1)(c1ccccc1)C1CC2C=CC1C2 (stereo not shown) [biperiden]
- appearance of skin oiliness [1]: much less oily
- visible unwanted side-effects regarding skin [1]: no other visible unwanted side-effects

Structure (SMILES): CNC1(C)C2CCC(C2)C1(C)C (stereo not shown) [mecamylamine]
- appearance of skin pores [2]: smaller in diameter
- visible unwanted side-effects regarding skin [2]: no other visible unwanted side-effects

Structure (SMILES): CC12CC3CC(C)(C1)CC(N)(C3)C2 [memantine]
- reduction in sebum production (as assessed by the Sebotape) ([3]; after five days): > 50%
- reduction in sebum production (as assessed by the Sebotape) ([3]; after six days): > 50%
- health of the skin in treatment region ([3]; after five days): healthy skin
- health of the skin in treatment region ([3]; after six days): healthy skin
- appearance of acne [4]: less visible
- visible unwanted side-effects regarding skin [4]: no other visible unwanted side-effects
